Counter-ions that a name gives are not always drawn. Like-named read-outs stand apart in the source and are kept apart here.
Experiments:
skin erythema = assay: Activity for inhibiting skin erythema caused by ultraviolet radiation; type: in vivo, albino guinea pig (Hartley strain, female, 7-8 week age); conditions: for inhibition in vivo at 3 %: Cavia porcellus; for 50% inhibitory concentration (IC50) for inhibiting the skin erythema: three concentrations within 0.1 to 10%
Procedure: The hairs covering in the back of albino guinea pig (Hartley strain, female, 7-8 week age) were shaved by using an electric hair clippers and a shaver. In the next day, the guinea pig was fixed in Bowlman's cage, then a light shield tape (adhesive plaster for patch test), having 4 round holes of 1.5 cm in diameter was adhered on the hair clipped portion so as to provide 4 sites (round holes) to be exposed to the ultraviolet rays. […] Each one of the test sample solutions was prepared by dissolving each test compounds in three kinds of concentrations within 0.1 to 10%, and applied.

[1] = test system: skin homogenate of guinea pig; assay: Activity for inhibiting the formation of lipid peroxides (ultraviolet-B irradiated skin homogenate, TBA method); type: biochemical, albino guinea pig (Hartley strain, female); conditions: test compound 10^-4 M; UV 9.5 mW/cm^2, 60 minutes
Procedure: The activity for inhibiting the formation of lipid peroxides which are increasingly formed by exposed to the ultraviolet-B radiation to the skin homogenate of guinea pig was determined by a procedure of thiobarbituric acid method (TBA method).
The activity for inhibiting the formation of lipid peroxides can be evaluated by degree of decreasing the optical absorbance of the condensate of thus formed malondialdehyde with thiobarbituric acid, by adding a test sample of the cyclic amide derivative of the present invention to the homogenate.
That is, the hairs covering in the back of an albino guinea pig (Hartley strain, female) were clipped by using an electric hair clippers under anesthesia. After the enucleation of the hair clipped portion of the skin, the subcutaneous tissue of this skin was removed in cold physiological saline. Distilled water in an amount of 9 times by weight of the skin tissue was added to this skin subcutaneous tissue, then was subjected to homogenation and centrifugation (600 g, for 5 minutes) to obtain the supernatant liquid. 5 Microliters each of test sample solutions of various concentrations was added to 0.5 ml each of the supernatant liquid, then the ultraviolet ray in the intensity of 9.5 mW/cm^2 was irradiated for 60 minutes by using fluorescent lamps (TOSHIBA FL-20SE, manufactured by Toshiba Corporation) as a light source. As to the reference sample solution, the solvent for dissolution of the test compound was used in place of the test sample solution. After ultraviolet radiation, the amount of lipid peroxide being formed in the sample solution (TBA value) was measured by TBA method (cf. Analytical Biochemistry, 1979, Vol. 95, pp. 351-358), and the inhibition rate of lipid peroxide formation shown by the test sample was calculated by the following formula: [formula]

[2] = 3% concentration of test compound, 10 μl topical, UV 1.3-1.5 mW/cm^2 for 30 minutes, measured 24 hours later, read-out: Rate of activity for inhibiting the skin erythema

Compound | inhibition in vivo at 3 % (skin erythema; [2]) [%] | Inhibition rate of lipid peroxide formation [1] | other results
C=CCc1cc2c(c(CC=C)c1O)CCC(=O)N2CCCN1CCOCC1 [Example 72] | 33 | – | –
C=CCc1cc2c(sc(=O)n2CC=C)c(CC=C)c1O [Example 39, 6-hydroxy-3,5,7-triallylbenzothiazolinone] | 42 | 82% | 50% inhibitory concentration (IC50) for inhibiting the skin erythema (skin erythema; topical): 4.7 concentration in %
C=CCc1cc2c(c(CC=C)c1O)CCC(=O)N2c1ccc(OC)c(OC)c1 [Example 60] | 27 | 83% | –
C=CCc1cc2c(c(CC=C)c1O)CCC(=O)N2CCCCCCCCCCCC [Example 102] | 57 | – | 50% inhibitory concentration (IC50) for inhibiting the skin erythema (skin erythema; topical): 3.7 concentration in %
C=CCc1cc2c(c(CC=C)c1O)CCC(=O)N2C [Example 40] | 23 | 84% | 50% inhibitory concentration (IC50) for inhibiting the skin erythema (skin erythema; topical): 5.6 concentration in %
C=CCOc1cc2c(cc1C=CC)N(CC=C(C)C)C(=O)CC2 [Example 80, 6-allyloxy-3,4-dihydro-1-prenyl-7-(1-propenyl)-2(1H)-quinolinone] | – | 95% | –
C=CCc1cc2c(c(CC=C)c1O)CCC(=O)N2Cc1ccc(C)c(C)c1 [Example 54] | – | 96% | –
C=CCc1cc2c(c(CC=C)c1O)CCC(=O)N2CCCNC(N)=O [Example 68, 5,7-diallyl-3,4-dihydro-6-hydroxy-1-(3-ureidopropyl)-2(1H)-quinolinone] | 43 | 68% | –
C=CCc1cc2c(c(CC=C)c1O)CCC(=O)N2CC1CCCCC1 [Example 44] | 63 | 100% | 50% inhibitory concentration (IC50) for inhibiting the skin erythema (skin erythema; topical): 1.6 concentration in %
C=CCc1cc2c(c(CC=C)c1O)CCC(=O)N2CCCCNCCCC [Example 84, 1-(4-n-butylaminobutyl)-5,7-diallyl-3,4-dihydro-6-hydroxy-2(1H)-quinolinone.oxalate] | 31 | – | –
C=CCc1cc2c(c(CC=C)c1O)CCC(=O)N2CC=C [Example 46] | – | 95% | –
C=CCc1cc2c(c(CC=C)c1O)CCC(=O)N2Cc1ccc(C(=O)OC)cc1 [Example 107, 5,7-Diallyl-3,4-dihydro-6-hydroxy-1-(4-methoxycarbonylbenzyl)-2(1H)-quinolinone] | 44 | – | –
C=CCc1cc(CN2C(=O)CCc3c2ccc(O)c3CC=C)cc(OC)c1O [Example 78, 5-allyl-6-hydroxy-1-(3-allyl-4-hydroxy-5-methoxybenzyl)-3,4-dihydro-2(1H)-quinolinone] | – | 95% | –
Cc1c(C)c2c(c(C)c1O)CCC(C)(CCCC(C)CCCC(C)CCCC(C)C)O2 (stereo not drawn) [Vitamin E, α-tocopherol, reference compound] | – | 77-79% | –
C=CCc1cc2c(c(CC=C)c1O)CCC(=O)N2CCCN1CCCCC1 [Example 71, 5,7-diallyl-3,4-dihydro-6-hydroxy-1-[3-(piperidinopropyl)]-2(1H)-quinolinone] | 45 | – | –
C=CCc1cc2c(c(CC=C)c1O)CCC(=O)N2c1ccc(OC)cc1 [Example 32, 5,7-diallyl-3,4-dihydro-6-hydroxy-1-(4-methoxyphenyl)-2(1H)-quinolinone] | – | 87% | –
C=CCc1cc2c(cc1O)CCC(=O)N2CC=C(C)C [Example 10, 7-allyl-3,4-dihydro-6-hydroxy-1-prenyl-2(1H)-quinolinone] | 38 | 82% | –
C=CCc1cc2c(c(CC=C)c1O)CCC(=O)N2CCCn1cnnc1 [Example 88, 5,7-diallyl-3,4-dihydro-6-hydroxy-1-[3-(1,2,4-triazol-4-yl)propyl]-2(1H)-quinolinone] | 37 | – | –
C=CCc1cc2c(c(CC=C)c1O)NC(=O)CC2 [Example 25, 6,8-diallyl-3,4-dihydro-7-hydroxy-2(1H)-quinolinone] | – | 78% | –
C=CCc1cc2c(c(CC=C)c1O)CCC(=O)N2 [Example 26, 5,7-diallyl-3,4-dihydro-6-hydroxy-2(1H)-quinolinone] | 36 | 80% | –
C=CCOc1cccc(CN2C(=O)CCc3c2cc(CC=C)c(O)c3CC=C)c1 [Example 50] | 36 | 89% | –
C=CCc1cc2c(c(CC=C)c1O)CCC(=O)N2CC(=O)[O-].[Na+] [Example 113, sodium (5,7-diallyl-6-hydroxy-1,2,3,4-tetrahydro-2-oxoquinolin-1-yl)acetate] | – | – | inhibition in vivo at 3 % (skin erythema; topical, 24 h, read-out: Rate of activity for inhibiting the skin erythema, 3% concentration of test compound, 10 μl topical, UV 1.3-1.5 mW/cm^2 for 30 minutes, measured 24 hours later): 52%; 50% inhibitory concentration (IC50) for inhibiting the skin erythema (skin erythema; topical): 2.5 concentration in %
C=CCc1cc2c(c(CC=C)c1O)CCC(=O)N2CC(N)=O [Example 77, 1-(carbamoylmethyl)-5,7-diallyl-3,4-dihydro-6-hydroxy-2(1H)-quinolinone] | 50 | – | 50% inhibitory concentration (IC50) for inhibiting the skin erythema (skin erythema; topical): 2.7 concentration in %

Compound | inhibition in vivo at 3 % (skin erythema; [2]) [%] | Inhibition rate of lipid peroxide formation [1] | other results
C=CCc1cc2c(c(CC=C)c1O)NC(=O)CO2 [Example 35, 5,7-diallyl-6-hydroxy-3-(2H)-1,4-benzoxazinone] | 41 | – | 50% inhibitory concentration (IC50) for inhibiting the skin erythema (skin erythema; topical): 5.9 concentration in %
C=CCc1cc2c(c(CC=C)c1O)CCC(=O)N2CCCNC(=O)CCl [Example 69, 1-(3-chloroacetylaminopropyl)-5,7-diallyl-3,4-dihydro-6-hydroxy-2(1H)-quinolinone] | – | 78% | –
C=CCc1cc2c(c(CC=C)c1O)CCC(=O)N2CCCCOC(C)=O [Example 104] | 31 | – | –
C=CCc1ccc2c(c1O)N(CCCCCCCCCCO)C(=O)CC2 [Example 65] | – | 79% | –
5,7-diallyl-3,4-dihydro-6-hydroxy-1-(2-hydroxybutyl)-2(1H)-quinolinone [Example 110] | – | – | Rate of activity for inhibiting the skin erythema (skin erythema; 3% concentration of test compound, 10 μl topical, UV 1.3-1.5 mW/cm^2 for 30 minutes, measured 24 hours later): 44%
C=CCc1cc(CN2C(=O)CCc3c2cc(CC=C)c(O)c3CC=C)ccc1O [Example 53] | – | 95% | –
C=CCc1cc2c(c(CC=C)c1O)N(CC=C)C(=O)CO2 [Example 37, 6-hydroxy-4,5,7-triallyl-3(2H)-1,4-benzoxazinone] | 39 | – | 50% inhibitory concentration (IC50) for inhibiting the skin erythema (skin erythema; topical): 7.7 concentration in %
C=CCc1cc2c(c(CC=C)c1O)CCC(=O)N2Cc1ccc(OC)cc1 [Example 52] | – | 100% | –
C=CCc1cc2c(c(CC=C)c1O)CCC(=O)N2CCCCC(=O)OC [Example 105] | 44 | – | –
C=CCc1cc2c(c(CC=C)c1O)CCC(=O)N2CCCCN(CC)CC [Example 86, 5,7-Diallyl-1-(4-diethylaminobutyl)-3,4-dihydro-6-hydroxy-2(1H)-quinolinone.oxalate] | – | 71% | –
C=CCc1cc2c(cc1O)N(CC=C(C)C)C(=O)CC2 [Example 11, 6-Allyl-3,4-dihydro-7-hydroxy-1-prenyl-2(1H)-quinolinone] | – | 70% | –
C=CCc1cc2c(c(CC=C)c1O)OCC(=O)N2CC=C [Example 36, 7-hydroxy-4,6,8-triallyl-3(2H)-1,4-benzoxazinone] | 26 | – | 50% inhibitory concentration (IC50) for inhibiting the skin erythema (skin erythema; topical): 9.8 concentration in %
C=CCc1cc2c(c(CC=C)c1O)CCC(=O)N2C1C=CCCC1 (centres unmarked) [Example 45] | – | 95% | –
C=CCc1cc2c(c(CC=C)c1O)CCC(=O)N2CCCCP(=O)(OCC)OCC [Example 93, 5,7-diallyl-1-(4-diethoxy-phosphorylbutyl)-3,4-dihydro-6-hydroxy-2(1H)-quinolinone] | – | 73% | –
C=CCc1cc2c(c(CC=C)c1O)CCC(=O)N2CCCCl [Example 42, 1-(3-chloropropyl)-5,7-diallyl-3,4-dihydro-6-hydroxy-2(1H)-quinolinone] | 45 | – | –
C=CCc1cc2c(c(CC=C)c1O)CCC(=O)N2CCCCNC(C)(C)CO [Example 85, 5,7-Diallyl-3,4-dihydro-6-hydroxy-1-[4-(2-hydroxy-1,1-dimethyl)ethylamino]butyl-2-(1H)-quinolinone. oxalate] | 39 | – | –
C=CCc1cc2c(c(CC=C)c1O)CCC(=O)N2CCCNCCOC [Example 74] | – | 68% | –
C=CCOc1ccc(CN2C(=O)CCc3c2cc(CC=C)c(O)c3CC=C)cc1 [Example 51] | – | 95% | –
C=CCc1cc2c(c(CC=C)c1O)CCC(=O)N2CCCCn1ccnc1 [Example 87, 5,7-Diallyl-3,4-dihydro-6-hydroxy-1-[4-(imidazol-1-yl)butyl]-2-(1N)-quinolinone.oxalate] | 28 | – | –
C=CCOc1cc2c(cc1CC=C)N(CC=C(C)C)C(=O)CC2 [Example 17, 7-allyl-6-allyloxy-3,4-dihydro-1-prenyl-2(1H)-quinolinone] | – | 85% | –
C=CCc1cc2c(cc1O)CCC(=O)N2CCCCCCCCCCO [Example 62] | – | 81% | –
C=CCc1cc2c(c(CC=C)c1O)CCC(=O)N2CC(=O)OCC [Example 57, 5,7-diallyl-1-(ethoxy-carbonylmethyl)-3,4-dihydro-6-hydroxy-2(1H)-quinolinone] | – | 78% | –
